Experimental data reported in patent US5451581A, “Antibiotic LL-14E605β and O-methyl-LL-14E605β” (priority 1993, dated 1995).

How the values were obtained:
[1] = tested on: Staphylococcus, coagluase negative (ID-3135); test: In vitro antibacterial activity, standard agar dilution (MIC); type: cell-based; conditions: Mueller-Hinton agar, about 18 hours, approximately 35° C.
Protocol: (§1) The in vitro antibacterial activity of LL-14E605β and O-methyl-LL-14E605β is determined against a spectrum of gram positive and gram-negative bacteria by a standard agar dilution method. Mueller-Hinton agar containing two fold decreasing concentrations of the antibiotics is poured into petri plates. The agar surfaces are inoculated with 1 to 5×10^4 colony forming units of bacteria by means of a Steer's replicating device. The lowest concentration of the LL-14E605 antibiotics that inhibits growth of a bacterial strain after about 18 hours of incubation at approximately 35° C. is recorded as the minimal inhibitory concentration (MIC) for that strain.

[2] = tested on: Staphylococcus, coagluase negative (ID-3120); test: as above; type: cell-based; conditions: Mueller-Hinton agar, about 18 hours, approximately 35° C.
Protocol: as §1

[3] = tested on: Staphylococcus aureus (NEMC-89-4); test: as above; type: cell-based; conditions: Mueller-Hinton agar, about 18 hours, approximately 35° C.
Protocol: as §1

[4] = tested on: Enterococcus faecium (12202); test: as above; type: cell-based; conditions: Mueller-Hinton agar, about 18 hours, approximately 35° C.
Protocol: as §1

[5] = tested on: Staphylococcus aureus (ID-3105); test: as above; type: cell-based; conditions: Mueller-Hinton agar, about 18 hours, approximately 35° C.
Protocol: as §1

[6] = tested on: Pseudomanas aeruginosa (ATCC 27853); test: as above; type: cell-based; conditions: Mueller-Hinton agar, about 18 hours, approximately 35° C.
Protocol: as §1

[7] = tested on: Escherichia coli (ATCC 25922); test: as above; type: cell-based; conditions: Mueller-Hinton agar, about 18 hours, approximately 35° C.
Protocol: as §1

[8] = tested on: Staphylococcus aureus (ID-2371); test: as above; type: cell-based; conditions: Mueller-Hinton agar, about 18 hours, approximately 35° C.
Protocol: as §1

[9] = tested on: Enterococcus faecalis (ID-2131); test: as above; type: cell-based; conditions: Mueller-Hinton agar, about 18 hours, approximately 35° C.
Protocol: as §1

[10] = tested on: Enterococcus faecalis (ID-1829); test: as above; type: cell-based; conditions: Mueller-Hinton agar, about 18 hours, approximately 35° C.
Protocol: as §1

[11] = tested on: Enterococcus faecalis (12201); test: as above; type: cell-based; conditions: Mueller-Hinton agar, about 18 hours, approximately 35° C.
Protocol: as §1

[12] = tested on: Morganella morganii (VGH 84-11); test: as above; type: cell-based; conditions: Mueller-Hinton agar, about 18 hours, approximately 35° C.
Protocol: as §1

[13] = tested on: Staphylococcus aureus (SMITH); test: as above; type: cell-based; conditions: Mueller-Hinton agar, about 18 hours, approximately 35° C.
Protocol: as §1

[14] = tested on: Enterococcus avium (ID-3953); test: as above; type: cell-based; conditions: Mueller-Hinton agar, about 18 hours, approximately 35° C.
Protocol: as §1

[15] = tested on: Enterococcus faecium (ID-3301); test: as above; type: cell-based; conditions: Mueller-Hinton agar, about 18 hours, approximately 35° C.
Protocol: as §1

[16] = tested on: Staphylococcus aureus (ID-2727); test: as above; type: cell-based; conditions: Mueller-Hinton agar, about 18 hours, approximately 35° C.
Protocol: as §1

[17] = tested on: Staphylococcus aureus (ATCC 29213); test: as above; type: cell-based; conditions: Mueller-Hinton agar, about 18 hours, approximately 35° C.
Protocol: as §1

[18] = tested on: Enterococcus faecium (ID-4133); test: as above; type: cell-based; conditions: Mueller-Hinton agar, about 18 hours, approximately 35° C.
Protocol: as §1

[19] = tested on: Bacillus cereus (Bacto); test: as above; type: cell-based; conditions: Mueller-Hinton agar, about 18 hours, approximately 35° C.
Protocol: as §1

[20] = tested on: Escherichia coli (J2445); test: as above; type: cell-based; conditions: Mueller-Hinton agar, about 18 hours, approximately 35° C.
Protocol: as §1

[21] = tested on: Escherichia coli (J2175); test: as above; type: cell-based; conditions: Mueller-Hinton agar, about 18 hours, approximately 35° C.
Protocol: as §1

[22] = tested on: Enterococcus faecalis (ID-4168); test: as above; type: cell-based; conditions: Mueller-Hinton agar, about 18 hours, approximately 35° C.
Protocol: as §1

[23] = tested on: Staphylococcus aureus (4379); test: as above; type: cell-based; conditions: Mueller-Hinton agar, about 18 hours, approximately 35° C.
Protocol: as §1

[24] = tested on: Staphylococcus, coagiuase negative (ID-4615); test: as above; type: cell-based; conditions: Mueller-Hinton agar, about 18 hours, approximately 35° C.
Protocol: as §1

[25] = tested on: Staphylococcus, coagluase negative (ID-3276); test: as above; type: cell-based; conditions: Mueller-Hinton agar, about 18 hours, approximately 35° C.
Protocol: as §1

[26] = tested on: Enterococcus faecalis (ATCC 29212); test: as above; type: cell-based; conditions: Mueller-Hinton agar, about 18 hours, approximately 35° C.
Protocol: as §1

[27] = tested on: Micrococcus luteus (ATCC 9341); test: as above; type: cell-based; conditions: Mueller-Hinton agar, about 18 hours, approximately 35° C.
Protocol: as §1

[28] = tested on: Staphylococcus hemolyticus (ID 4061); test: as above; type: cell-based; conditions: Mueller-Hinton agar, about 18 hours, approximately 35° C.
Protocol: as §1

[29] = tested on: Staphylococcus, coagluase negative (ID-3941); test: as above; type: cell-based; conditions: Mueller-Hinton agar, about 18 hours, approximately 35° C.
Protocol: as §1

[30] = Relative activity of the components of the LL-14E605 complex; conditions: listed as LL-14E605β

Compound	Minimal Inhibitory Concentration (MIC) [1]	Minimal Inhibitory Concentration (MIC) [2]	Minimal Inhibitory Concentration (MIC) [3]	Minimal Inhibitory Concentration (MIC) [4]	Minimal Inhibitory Concentration (MIC) [5]	Minimal Inhibitory Concentration (MIC) [6]	Minimal Inhibitory Concentration (MIC) [7]	Minimal Inhibitory Concentration (MIC) [8]	Minimal Inhibitory Concentration (MIC) [9]	Minimal Inhibitory Concentration (MIC) [10]	Minimal Inhibitory Concentration (MIC) [11]	Minimal Inhibitory Concentration (MIC) [12]	Minimal Inhibitory Concentration (MIC) [13]	Minimal Inhibitory Concentration (MIC) [14]	Minimal Inhibitory Concentration (MIC) [15]	Minimal Inhibitory Concentration (MIC) [16]	Minimal Inhibitory Concentration (MIC) [17]	Minimal Inhibitory Concentration (MIC) [18]	Minimal Inhibitory Concentration (MIC) [19]	Minimal Inhibitory Concentration (MIC) [20]	further results
COC(C)=C1NC(=O)C(C(C)O)NC(=O)c2csc(n2)-c2cc(O)c(-c3nc(C(N)=O)cs3)nc2-c2csc(n2)C2CSC(=O)c3[nH]c4cccc5c4c3COC(C(OC3CC(C)(O)C(N(C)C)C(C)O3)C(=O)OC5)C(NC(=O)c3csc1n3)c1nc(cs1)C(=O)N2 (stereo not drawn) [LL-14E605-beta]	0.03 mg/L	0.06 mg/L	0.015 mg/L	0.004 mg/L	0.015 mg/L	> 64 mg/L	> 64 mg/L	0.015 mg/L	0.015 mg/L	0.002 mg/L	0.015 mg/L	> 64 mg/L	0.008 mg/L	0.002 mg/L	0.015 mg/L	0.008 mg/L	0.015 mg/L	≤ 0.005 mg/L	0.06 mg/L	0.06 mg/L	Minimal Inhibitory Concentration (MIC) [21]: > 64 mg/L; Minimal Inhibitory Concentration (MIC) [22]: 0.015 mg/L; Minimal Inhibitory Concentration (MIC) [23]: 0.015 mg/L; Minimal Inhibitory Concentration (MIC) [24]: 0.015 mg/L; Minimal Inhibitory Concentration (MIC) [25]: 0.008 mg/L; Minimal Inhibitory Concentration (MIC) [26]: 0.015 mg/L; Minimal Inhibitory Concentration (MIC) [27]: 0.002 mg/L; Minimal Inhibitory Concentration (MIC) [28]: 0.03 mg/L; Minimal Inhibitory Concentration (MIC) [29]: 0.06 mg/L; activity relative to the other components of the LL-14E605 complex [30]: most active component of the LL-14E605 complex
COC(C)=C1NC(=O)C(C(C)O)NC(=O)c2csc(n2)-c2cc(OC)c(-c3nc(C(N)=O)cs3)nc2-c2csc(n2)C2CSC(=O)c3[nH]c4cccc5c4c3COC(C(OC3CC(C)(O)C(N(C)C)C(C)O3)C(=O)OC5)C(NC(=O)c3csc1n3)c1nc(cs1)C(=O)N2 [O-methyl-L-14E605beta]	1 mg/L	1 mg/L	0.5 mg/L	8 mg/L	0.25 mg/L	> 32 mg/L	> 32 mg/L	0.5 mg/L	4 mg/L	8 mg/L	4 mg/L	> 32 mg/L	0.25 mg/L	8 mg/L	8 mg/L	0.25 mg/L	0.25 mg/L	8 mg/L	0.5 mg/L	> 32 mg/L	Minimal Inhibitory Concentration (MIC) [21]: > 32 mg/L; Minimal Inhibitory Concentration (MIC) [22]: 8 mg/L; Minimal Inhibitory Concentration (MIC) [23]: 0.25 mg/L; Minimal Inhibitory Concentration (MIC) [24]: 0.25 mg/L; Minimal Inhibitory Concentration (MIC) [25]: 0.5 mg/L; Minimal Inhibitory Concentration (MIC) [26]: 8 mg/L; Minimal Inhibitory Concentration (MIC) [27]: 0.5 mg/L; Minimal Inhibitory Concentration (MIC) [28]: 1 mg/L; Minimal Inhibitory Concentration (MIC) [29]: 4 mg/L
